Test results published in patent US20090048260A1, “Use of pyrrolopyrazine derivatives for the production of medicaments for the treatment of mucoviscidosis and diseases related to protein addressing errors in cells” (priority 2004, published 2009).
Where “and” joins values, the source holds several entries; their conditions need not be identical. Equal entries are not always repeated. Each block holds one molecule with its values, some of them ahead of it.

Key:
delF508-CFTR [1] = biological target: T1, delF508-CFTR (Homo sapiens, UniProt P13569, DEL508-508); assay: iodide efflux, targeting (retargeting) of delF508-CFTR in CF15 cells; type: cell-based; conditions: for effect of known CFTR inhibitors on delF508 transport after treatment with aloisine A: CF15 cells treated with aloisine A
T1 construct: endogenous in cells; host or cells: CF15 (homozygous delF508)
T1 sequence (P13569 with tags, fused parts or gaps DEL508-508): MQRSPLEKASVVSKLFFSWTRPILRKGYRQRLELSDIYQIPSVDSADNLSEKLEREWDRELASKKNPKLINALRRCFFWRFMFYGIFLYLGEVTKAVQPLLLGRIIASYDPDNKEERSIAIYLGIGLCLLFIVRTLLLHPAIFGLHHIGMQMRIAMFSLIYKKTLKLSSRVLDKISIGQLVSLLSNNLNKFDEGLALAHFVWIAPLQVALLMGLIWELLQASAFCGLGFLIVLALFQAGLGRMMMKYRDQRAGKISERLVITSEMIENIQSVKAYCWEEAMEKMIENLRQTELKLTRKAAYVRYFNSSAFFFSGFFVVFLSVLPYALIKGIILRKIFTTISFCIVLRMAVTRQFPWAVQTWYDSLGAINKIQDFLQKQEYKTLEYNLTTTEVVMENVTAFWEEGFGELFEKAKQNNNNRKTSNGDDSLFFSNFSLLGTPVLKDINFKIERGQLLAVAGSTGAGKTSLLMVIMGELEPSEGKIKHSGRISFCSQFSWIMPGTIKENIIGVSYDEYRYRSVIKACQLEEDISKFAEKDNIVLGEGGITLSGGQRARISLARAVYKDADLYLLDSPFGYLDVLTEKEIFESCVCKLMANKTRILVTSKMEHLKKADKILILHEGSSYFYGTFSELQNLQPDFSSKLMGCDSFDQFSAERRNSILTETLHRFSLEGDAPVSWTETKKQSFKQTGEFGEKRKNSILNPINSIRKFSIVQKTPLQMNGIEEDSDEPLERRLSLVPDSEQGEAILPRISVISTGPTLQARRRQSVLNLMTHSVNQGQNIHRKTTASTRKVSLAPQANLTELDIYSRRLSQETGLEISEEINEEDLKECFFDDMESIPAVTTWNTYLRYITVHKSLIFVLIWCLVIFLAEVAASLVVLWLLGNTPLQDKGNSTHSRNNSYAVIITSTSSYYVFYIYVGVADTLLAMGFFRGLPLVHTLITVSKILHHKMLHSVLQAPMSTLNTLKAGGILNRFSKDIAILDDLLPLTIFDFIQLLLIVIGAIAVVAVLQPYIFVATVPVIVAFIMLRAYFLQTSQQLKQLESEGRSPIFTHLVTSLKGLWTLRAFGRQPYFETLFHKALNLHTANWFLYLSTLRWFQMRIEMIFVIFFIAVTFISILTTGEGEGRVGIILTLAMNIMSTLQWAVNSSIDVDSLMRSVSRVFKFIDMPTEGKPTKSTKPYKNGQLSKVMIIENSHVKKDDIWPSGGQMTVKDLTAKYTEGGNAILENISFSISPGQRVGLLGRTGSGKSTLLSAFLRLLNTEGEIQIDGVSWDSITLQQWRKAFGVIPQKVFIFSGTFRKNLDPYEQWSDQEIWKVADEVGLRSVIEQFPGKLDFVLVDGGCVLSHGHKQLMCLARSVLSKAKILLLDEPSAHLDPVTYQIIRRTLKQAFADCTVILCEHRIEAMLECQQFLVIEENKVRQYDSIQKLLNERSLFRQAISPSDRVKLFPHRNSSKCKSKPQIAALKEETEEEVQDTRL
Method: (§1) CF15 cells: CF15 cells are human epithelial cells of nasal origin which express the Δ508-CFTR gene.
Next, the quantity of radiotracer which leaves the cell is counted after the addition of various pharmacological agents.
The cells are cultured on 24-well plates in a suitable medium. […] The iodide equilibrates on either side of the cell membrane. A robot (MultiPROBE, Packard) carries out the following steps: the loading medium is rinsed with efflux medium in order to remove the extracellular radioactivity. The supernatant is collected every minute in hemolysis tubes and the medium is replaced with an equivalent volume (500 μl). The samples collected for the first 3 minutes are not supplemented with drug, they make it possible to obtain a stable baseline, characterizing the passive outflow of the I ions. The next 7 samples are obtained in the presence of the molecule to be tested. At the end of the experiment, the cells are lyzed by adding 500 μl of NaOH (0.1 N)/0.1% SDS (30 min), thus, the radioactivity which remained inside the cell may be determined. The radioactivity present in the hemolysis tubes is counted as counts per minute (cpm) using a gamma counter (Cobra II, Packard). The results in cpm are expressed in the form of rate of radioactive iodide outflow (R) according to the following formula: […]
This iodide flow is represented in the form of a curve. In order to quantify the outflow of iodide due to the administration of the molecule tested, the following relative flow is calculated which makes it possible to dispense with the basic flow: relative rate (min^−1)=Rpeak−Rbasal. […] The results are presented in the form of a mean+/−SEM. The student's statistical test is used to compare the effect of the drugs to the controls (the values corresponding to P<0.01 are considered as statistically significant).
The study of the targeting of the delF508-CFTR protein was carried out by combining pharmacological and cell imaging approaches, and biochemical and electrophysiological tests on […] human epithelial cells CF15 homozygous for the delF508 deletion.
For each experiment, the addition of a cocktail (10 μM forskolin+30 μM genistein) allows the activation of CFTR when it is attached to the membrane. Thus, an iodide efflux can be observed if the targeting of delF508 has been restored.

delF508-CFTR [2] = biological target: T1, delF508-CFTR; assay: immunolocalization of delF508-CFTR in CF15 cells (confocal imaging); type: cell-based; conditions: 100 μM aloisine A
Method: Immunolabeling makes it possible to reveal the cellular location of the CFTR protein using a primary anti-CFTR antibody (Ab), and then a secondary antibody anti-primary antibody labeled with the fluorophore Cy3.
The cells are inoculated beforehand on cover glass in appropriate culture medium. 3 washes with TBS (NaCl: 157 mM, Tris base: […], pH 7.4) of 5 min each are performed. The cells are then fixed by addition of TBS-paraformaldehyde (3%) for 20 min. After 3 washes with TBS (5 min), the cells are incubated with TBS-triton 0.1% (10 min) which allows the formation of holes in the cell membrane and then 3 washes with TBS are again carried out before bringing the cells into contact with TBS-BSA 0.5%-saponin 0.05% for 1 h. The cells are then incubated with the anti-C-terminal CFTR primary antibody (2 μg/ml) for 1 h. 3 washes with TBS-BSA-saponin of 5 min each are carried out before the incubation with the secondary antibody GAM-cy3 (1/400) for 1 h. Following 2 washes with TBS of 5 min, the nuclei are labeled by incubating with Topro3 (1/1000) for 5 min. Next, the cover glass may be mounted on the slide after 3 final washes with TBS of 5 min. […] In order to distinguish between the Cy3 and Topro3 labeling, the fluorescence color of Topro3 was changed to blue (color of the nuclei).

[3] = in vivo
wild-type CFTR (CFTR-WT) = biological target: T2, wild-type CFTR (CFTR-WT) (Homo sapiens, UniProt P13569); assay: iodide efflux, activation of the CFTR chloride channel in CHO cells; type: cell-based
T2 construct: expressed in transfected cells; host or cells: CHO (Chinese Hamster Ovary) cells
T2 sequence (P13569 whole entry): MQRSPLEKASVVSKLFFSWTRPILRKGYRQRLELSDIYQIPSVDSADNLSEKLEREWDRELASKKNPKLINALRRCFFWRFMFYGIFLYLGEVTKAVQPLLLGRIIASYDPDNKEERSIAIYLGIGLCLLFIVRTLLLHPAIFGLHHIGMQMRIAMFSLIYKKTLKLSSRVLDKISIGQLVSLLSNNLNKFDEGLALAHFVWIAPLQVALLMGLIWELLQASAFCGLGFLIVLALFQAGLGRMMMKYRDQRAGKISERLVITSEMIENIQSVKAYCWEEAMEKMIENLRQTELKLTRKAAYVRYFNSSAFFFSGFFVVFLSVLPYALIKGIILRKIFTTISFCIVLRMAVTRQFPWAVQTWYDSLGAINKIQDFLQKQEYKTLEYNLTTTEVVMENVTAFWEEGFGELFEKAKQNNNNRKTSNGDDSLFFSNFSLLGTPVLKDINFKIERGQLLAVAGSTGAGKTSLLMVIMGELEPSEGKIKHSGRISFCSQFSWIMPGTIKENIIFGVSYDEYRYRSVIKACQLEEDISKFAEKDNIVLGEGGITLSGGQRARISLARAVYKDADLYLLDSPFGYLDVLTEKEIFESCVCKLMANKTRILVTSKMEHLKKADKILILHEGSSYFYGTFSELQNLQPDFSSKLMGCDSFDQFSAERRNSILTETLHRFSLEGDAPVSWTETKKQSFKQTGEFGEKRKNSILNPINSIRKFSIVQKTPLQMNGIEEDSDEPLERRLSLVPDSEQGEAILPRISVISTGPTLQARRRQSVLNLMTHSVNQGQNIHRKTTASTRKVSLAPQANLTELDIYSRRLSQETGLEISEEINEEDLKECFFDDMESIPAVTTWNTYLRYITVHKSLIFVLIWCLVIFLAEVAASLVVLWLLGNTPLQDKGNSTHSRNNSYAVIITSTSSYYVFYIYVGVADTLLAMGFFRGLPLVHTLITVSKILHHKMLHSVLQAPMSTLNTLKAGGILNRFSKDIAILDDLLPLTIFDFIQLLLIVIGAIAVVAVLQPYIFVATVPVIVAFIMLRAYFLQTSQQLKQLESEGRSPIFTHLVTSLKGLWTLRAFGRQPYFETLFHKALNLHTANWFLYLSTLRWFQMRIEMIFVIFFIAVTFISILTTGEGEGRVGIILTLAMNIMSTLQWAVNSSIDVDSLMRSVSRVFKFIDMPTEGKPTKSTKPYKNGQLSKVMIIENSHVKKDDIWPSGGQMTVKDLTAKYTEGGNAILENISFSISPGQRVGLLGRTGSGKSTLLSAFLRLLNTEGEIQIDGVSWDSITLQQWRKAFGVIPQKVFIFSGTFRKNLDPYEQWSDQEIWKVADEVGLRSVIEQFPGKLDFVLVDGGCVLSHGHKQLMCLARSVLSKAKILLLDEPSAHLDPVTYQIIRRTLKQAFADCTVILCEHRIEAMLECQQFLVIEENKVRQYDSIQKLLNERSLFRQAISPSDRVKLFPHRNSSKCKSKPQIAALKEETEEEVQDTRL
Method: CHO-WT cells: The CHO (Chinese Hamster Ovary) cells are fibroblasts which have been transfected with the wild-type CFTR (CFTR-WT) gene. These cells will therefore overexpress the CFTR protein.
the measurements of chloride ion transport in the cells was carried out with the aid of the radioactive iodide efflux technique (Becq et al., 1999; Dormer et al., 2001). The tracer (^125I) is incorporated into the intracellular medium. Next, the quantity of radiotracer which leaves the cell is counted after the addition of various pharmacological agents. […]
(§2) The cells are cultured on 24-well plates in a suitable medium. 2 rinses with efflux medium (NaCl: 136.6 mM, KCl: 5.4 mM, KH2PO4: 0.3 mM, NaH2PO4: 0.3 mM, NaHCO3: 4.2 mM, CaCl2: 1.3 mM, MgCl2: 0.5 mm, MgSO4: 0.4 mM, HEPES: 10 mM, D-glucose: 5.6 mM) are carried out in order to remove the dead cells which release the radioactivity anarchically. […] A robot (MultiPROBE, Packard) carries out the following steps: the loading medium is rinsed with efflux medium in order to remove the extracellular radioactivity. […] At the end of the experiment, the cells are lyzed by adding 500 μl of NaOH (0.1 N)/0.1% SDS (30 min), thus, the radioactivity which remained inside the cell may be determined. The radioactivity present in the hemolysis tubes is counted as counts per minute (cpm) using a gamma counter (Cobra II, Packard). […]

delF508-CFTR [4] = biological target: T1, delF508-CFTR; assay: iodide efflux, activation of delF508 in CF15 cells after incubation at 27° C.; type: cell-based
Method: as §1
(§3) the measurements of chloride ion transport in the cells was carried out with the aid of the radioactive iodide efflux technique (Becq et al., 1999; Dormer et al., 2001). The tracer (^125I) is incorporated into the intracellular medium. Next, the quantity of radiotracer which leaves the cell is counted after the addition of various pharmacological agents. Iodide is used as a tracer for the transport of chloride ions. ^125I further has the advantage of having a short life compared with that of other markers such as ^35Cl (respective ½ life: […] and 300000 years).
as §2, with “determined.” for “determined. The radioactivity present in the hemolysis tubes is counted as counts per minute (cpm) using a gamma counter (Cobra II, Packard).”

CHO-WT cells = assay: MTT cytotoxicity test; type: cell-based, Chinese Hamster; conditions: various concentrations
Method: The test of toxicity to MTT is a […] test which is based on capacity of mitochondrial dehydrogenases to metabolize MTT (yellow tetrazolium salt) to formazan (purple). The absorbance, which is proportional to the concentration of dye converted, can then be measured by spectrophotometry. […] 3 controls are prepared: 100% living cells: cells without agent; 0% living cells: cells left in the open air; blank: medium without cells. […] Next, they are incubated for 4 h with 100 μl of RPMI solution supplemented with MTT (0.5 mg/ml). The medium is then removed, the addition of 100 μl of DMSO makes it possible to solubilize the dye converted (formazan). The absorbance is measured by spectrophotometry at 570 nm (purple); 630 nm (background). In order to eliminate the background, the following calculation is carried out: DOreal=DO570nm−DO630nm. Next, the results are normalized with respect to the controls (100% and 0% of living cells) and are presented in the form of mean+/−SEM.

G551D-CFTR = biological target: T3, G551D-CFTR (Homo sapiens, UniProt P13569, G551D); assay: iodide efflux, activation of G551D-CFTR in CHO cells; type: cell-based; conditions: CHO cell
T3 construct: expressed in transfected cells; host or cells: CHO cells
T3 sequence (P13569 whole entry G551D): as the sequence (P13569 whole entry) above, with G551D counted along it
Method: as §3, §2

Compound: C[C@H]1CCC/C=C/[C@@H]2C[C@H](O)C[C@H]2[C@H](O)/C=C/C(=O)O1 [Brefeldin A]
competition with aloisine A: effect on the aloisine A-induced retargeting of delF508-CFTR (delF508-CFTR [1]; iodide efflux, CF15 cells): inhibition

Compound: COc1ccc(Cl)cc1C(=O)NCCc1ccc(S(=O)(=O)NC(=O)NC2CCCCC2)cc1 [glibenclamide]
effect of known CFTR inhibitors on delF508 transport after treatment with aloisine A (delF508-CFTR [1]): blocked

Second part, led by results:

effect of known CFTR inhibitors on delF508 transport after treatment with aloisine A (delF508-CFTR [1]): insensitive
Compound: O=S(=O)(O)c1cc(N=C=S)ccc1C=Cc1ccc(N=C=S)cc1S(=O)(=O)O [DIDS]

effect of known CFTR inhibitors on delF508 transport after treatment with aloisine A (delF508-CFTR [1]): blocked
Compound: O=C(O)c1ccccc1Nc1ccccc1 [DPC]

delF508-CFTR activity after treatment (delF508-CFTR [1]; CF15 cells, 100 μM, 2 h treatment, 37° C.): restored | EC50 (delF508-CFTR [1]; CF15 cells, 2 h treatment, then 10 μM forskolin+30 μM genistein, read-out: EC50 of retargeting of delF508-CFTR (restored iodide efflux)): 50000 nM and 49000 nM | EC50 (wild-type CFTR (CFTR-WT)): 152 nM | EC50 (delF508-CFTR [4]): 110 nM | EC50 (G551D-CFTR): 1.5 nM
Compound: CCCCc1c(-c2ccc(O)cc2)[nH]c2nccnc12 [aloisine A]
localization of the delF508 protein (delF508-CFTR [2]): redirect the delF508 protein to the membrane | toxicity on animals [3]: very low toxicity | cell viability (MTT) (CHO-WT cells; 2 h incubation): viable for all the concentrations | cell viability (MTT) (CHO-WT cells; 24 h incubation): viable for all the concentrations
